Consider three compounds from patent US8476235B2 (Apotex Technologies Inc., priority 2006, dated 2013).

≈ marks a conversion by molar mass, not a printed value. Like-named read-outs stand apart in the source and are kept apart here. Where only a bound is given, the exact number is not on record here.

Data set [1] can be described thus: speciation calculation using experimentally determined pKas (FIG. 8). Format: physicochemical. The conditions noted are these: pH 2.7, concentration 0.5M. The text has this: FIG. 8 illustrates the speciation calculation of the dipeptide H-D-iGlu-D-Trp-OH and its salt using experimentally determined pKas of the acid and amine groups. LH2 is the diacid form of the peptide H-D-iGlu-D-Trp-OH, LH is the mono carboxylic acid salt of H-D-iGlu-D-Trp-OH. An example of such is the mono ammonium salt. L refers to the diacid salt form and one such example is the disodium salt of the peptide H-D-iGlu-D-Trp-OH.
The pKas of the acid and amine groups of H-D-iGlu-D-Trp-OH are experimentally determined. In FIG. 8, LH2 is thymodepressin, LH is the monocarboxylic acid salt, L is the dicarboxylic acid salt, and LH3 is the acid addition salt of thymodepressin. The X axis provides the pH of the solution. The Y axis provides the % formation relative to L (the default terminology of the software) and reports the molar fraction of the species present at a particular pH. The concentration of 0.5M is used to reflect the equivalency of 1 gm of thymodepressin in 6 ml water during isolation purposes. […] For this reason, thymodepressin precipitates at pH 2.7 and can be filtered. The mother liquor can be concentrated to obtain a second crop of thymodepressin. The plot confirms the theoretical prediction that the diacid form of H-D-iGlu-D-Trp-OH predominates at pH of about 2.5 to about 3.0, which is the pH for the isolation of the diacid from water as a precipitate. […]

The nature of data set [2]: water solubility. Format: physicochemical. The conditions noted are these: in water, organic solvent free.
Data set [3] is described as follows: pH of solution. Type of data set: physicochemical. The conditions noted are these: in solution.
For data set [4] the following is noted: solid form, cited from earlier work.
The conditions of data set [5]: HPLC method B.
Method: In method B, the samples are analyzed with a normal reverse phase column, there is virtually no difference in the retention times of the samples.

In the case of `N[C@H](CCC(=O)N[C@H](Cc1c[nH]c2ccccc12)C(=O)O)C(=O)O` [thymodepressin, D-isoglutamyl-D-tryptophan], the “molar fraction present as dicarboxylic acid form (LH2)” value in data set [1] is given as “about 75%”. The water solubility in data set [2] (listed as H-D-iGlu-D-Trp-OH) is given as below 23 mg per mL; in data set [2] (listed as crystalline thymodepressin), “about 20 mg per mL”. This compound also came in with a solubility in data set [2] (water) of around 23 mg/mL (≈ 69 mM). Also, the “pH of a solution” value in data set [3] was “about 3”.

Take “D-isoglutamyl-D-tryptophan disodium salt”: the “hygroscopicity (in words)” value in data set [4] (listed as D-isoglutamyl-D-tryptophan disodium salt) is reported as “hygroscopic”; in data set [4] (disodium salt) it was “extremely hygroscopic”.

As for “D-isoglutamyl-D-tryptophan, mono ammonium salt (1:1)”, in data set [5], the “purity at 254 nm after 2 years of storage” value is given as 99.8%.
